Measured values published in patent publication US20160326098A1, “Pharmaceutically Active Compound for Use as Anti-inflammatory Agent” (Pax Forschung GmbH, priority 2013, published 2016).

What was measured:
Type in all cases: in vivo
nitrite/nitrate (NOx) = assay: Tissue nitrite/nitrate level, mice with gastric injury without inflammation; conditions: gastric and duodenal tissue, 1.11 mmol/kg, vs control group A and group C, FIGS. 7a/7b
Experimental: […] This assay depends on the reduction of nitrate to nitrite, which is then converted into a colored azo dye compound that is detected spectrophotometrically at 540 nm.
(§1) First experiments regarding the effect of the compound of formula (I) and a pharmaceutical composition comprising the compound of formula (I) (clear aqueous solution of compound of formula (I) at pH 4.8), respectively, on gastric injury without inflammation were conducted on mice. 48 animals were randomly allocated into three groups. Group A (n=16) served as sham-operated controls. Samples of all animals were drawn on day 1 of the clinical tests. On day 2 the animals of group B (n=16) were force-fed acetylsalicylic acid (ASS) (1.11 mmol/kg body weight). Group C (n=16) was force-fed 1.11 mmol/kg body weight of the compound according to the invention. Group A only received the respective solvent (25% ethanol in water). One day after the gavage, additional samples were drawn. Fluorescence confocal endomicroscopy was performed to examine the microvasculature and morphologic changes of the mucosa of the distal colon, and full-thickness tissue samples and venous blood samples were taken to determine the biochemical changes in the colon and plasma. The effects were determined by way of measurement of body weight, blood gas analysation and biopsy. […]

gastric mucosa = assay: Macroscopic analysis (score) of gastric mucosa damage, mice; conditions: 1.11 mmol/kg, vs groups A and C, FIG. 10
Experimental: as §1
The average of the three criteria is calculated for the animals of each group, wherein “0” means for criteria 1 small or no bleeding area, for criteria 2 no bleeding area and for criteria 3 no ulcer. […]

myeloperoxidase (MPO) = assay: Tissue myeloperoxidase activity, rats with TNBS-induced colitis; conditions: gastric and colon tissue, one day after 1.11 mmol/kg, vs untreated colitis and ASS groups, FIGS. 32a/32b
Experimental: (§2) Colonic inflammation was induced by intracolonic administration of TNBS (2,4,6-trinitrobenzenesulfonic acid) (40 mg/kg in 0.25 ml of 25% aqueous ethanol) through an 8-cm-long soft plastic catheter under transient diethylether anesthesia. In the sham-operated groups, only the vehicle for TNBS was administered. The animals were deprived of food, but not water, for 12 h before the enemas.
Colon biopsies kept on ice were homogenized in phosphate buffer (pH 7.4) containing 50 mM Tris-HCl (Reanal, Budapest, Hungary), 0.1 mM EDTA, 0.5 mM dithiothreitol, 1 mM phenylmethylsulfonyl fluoride, 10 μg/ml soybean trypsin inhibitor, and 10 μg/ml leupeptin (Sigma Aldrich GmbH, Munich, Germany). […] The activity of myeloperoxidase (MPO) was measured on the pellet of the homogenate.
The activity of MPO as a marker of tissue leukocyte infiltration was measured on the pellet of the homogenate. […] The reaction led to the hydrogen peroxide-dependent oxidation of tetramethylbenzidine, which could be detected spectrophotometrically at 450 nm (UV-1601 spetrophotometer; Shimadzu, Kyoto, Japan). Myeloperoxidase activities were measured at 37° C.; the reaction was stopped after 5 minutes by the addition of 0.2 ml of H2SO4 (2 M), and the resulting data were referred to the protein content. […]

[1] = tested on: High mobility group box protein 1 (HMGB-1); assay: Plasma high-mobility group protein B1, rats with TNBS-induced colitis; conditions: 1.11 mmol/kg, day 3, FIG. 31
Experimental: as §2
High mobility group box protein 1 (HMGB-1) measurements in plasma:
Blood samples were drawn into chilled polypropylene tubes containing EDTA (1 mg/ml) and were centrifuged at 1200 g for 10 min at 4° C. The plasma samples were then collected and stored at −70° C. until assay. Plasma concentration of HMGB-1 was measured by a commercially available HMGB-1 ELISA kit (Shino-Test Corporation, Kanagawa, Japan).
The above-described clinical studies were repeated with animals having colitis which was induced as described above. […] Two days after the enema the effects of the treatment were determined by measurement of body weight, blood gas analysis and biopsy. […] Surgery was performed to allow registration of the hemodynamic parameters at 1 h intervals for 6 h (cardiac output [CO] data were measured only at the end of the experiments). […]

[2] = Haematocrit in blood, rats with TNBS-induced colitis; conditions: 1.11 mmol/kg, vs groups L and M, FIG. 28
Experimental: as §2
The above-described clinical studies were repeated with animals having colitis which was induced as described above. […] Two days after the enema the effects of the treatment were determined by measurement of body weight, blood gas analysis and biopsy. […] Surgery was performed to allow registration of the hemodynamic parameters at 1 h intervals for 6 h (cardiac output [CO] data were measured only at the end of the experiments). […] In addition, fluorescence confocal endomicroscopy was performed to examine the microvasculature and morphologic changes of the mucosa of the distal colon, and full-thickness tissue samples and venous blood samples were taken to determine the biochemical changes in the colon and plasma.

SMILES: CC(=O)Oc1ccccc1C(=O)O [ASS, acetylsalicylic acid, reference compound]
- nitrite/nitrate level (nitrite/nitrate (NOx)): significant difference in the nitrite/nitrate level
- macroscopic analysis of the mucosa (score) (gastric mucosa): significant damage of the mucosa

SMILES: CC(=O)Oc1ccccc1C(=O)NC(CO)(CO)CO [compound according to the invention]
- myeloperoxidase enzyme activity (myeloperoxidase (MPO)): decrease of activity
- concentration of the high-mobility group protein B1 in the plasma [1]: significant reduction
- haematocrit level in the blood [2]: slightly higher
